Experiment [1] concerns Salmonella typhimurium. Kind of experiment: Ratio of ciprofloxacin MIC to compound MIC for Salmonella typhimurium MTCC 98. The class given is functional, Salmonella enterica subsp. enterica serovar Typhimurium.
Experiment [2] concerns Escherichia coli. The experiment can be described thus: Ratio of ciprofloxacin MIC to compound MIC for Escherichia coli MTCC 443. In kind it is functional.
Experiment [3] relates to Salmonella typhimurium. The experiment can be described thus: Antibacterial activity against Salmonella typhimurium MTCC 98 after 24 hrs by agar well diffusion method. In kind it is functional, Salmonella enterica subsp. enterica serovar Typhimurium. The note with it: Salmonella enterica, MTCC 98, 24 h. (In general: A growth-free zone around the sample is the usual read-out of agar diffusion tests.)

In experiment [4] the test system is Aspergillus niger. The experiment can be described thus: Ratio of miconazole MIC to compound MIC for Aspergillus niger MTCC 281. In kind it is functional.
The test system of experiment [5] is Fusarium solani. The experiment can be described thus: Ratio of miconazole MIC to compound MIC for Fusarium solani MTCC 350. The class given is functional.
Experiment [6] concerns Aspergillus niger. The experiment can be described thus: Antifungal activity against Aspergillus niger MTCC 281 after 2 to 3 days by agar well diffusion method. In kind it is functional.
In experiment [7] the test system is Aspergillus flavus. Kind of experiment: Ratio of miconazole MIC to compound MIC for Aspergillus flavus MTCC 277. In kind it is functional.
The test system of experiment [8] is Fusarium solani. Kind of experiment: Antifungal activity against Fusarium solani MTCC 350 after 2 to 3 days by agar well diffusion method. The class given is functional.
The subject of experiment [9] is THP-1. The experiment can be described thus: Antiinflammatory activity in human THP1 cells assessed as inhibition of LPS-stimulated TNFalpha production at 10 uM incubated for 30 mins prior to LPS-challenge measured 24 hrs post LPS challenge by ELISA. In kind it is functional. Background: ELISA stands for enzyme-linked immunosorbent assay.
Experiment [10] relates to THP-1. Kind of experiment: Antiinflammatory activity in human THP1 cells assessed as inhibition of LPS-stimulated IL-6 production at 10 uM incubated for 30 mins prior to LPS-challenge measured 24 hrs post LPS-challenge by ELISA. The class given is functional.
The subject of experiment [11] is Bacillus subtilis. Kind of experiment: Antibacterial activity against Bacillus subtilis MTCC 441 after 24 hrs by agar well diffusion method. In kind it is functional. The note with it: MTCC 441, 24 h.
In experiment [12] the test system is Staphylococcus aureus. The experiment can be described thus: Antibacterial activity against Staphylococcus aureus MTCC 96 after 24 hrs by agar well diffusion method. In kind it is functional. To be noted: MTCC 96, 24 h.
For experiment [13], the system named is Escherichia coli. Kind of experiment: Antibacterial activity against Escherichia coli MTCC 443 after 24 hrs by agar well diffusion method. In kind it is functional. To be noted: MTCC 443, 24 h.
Experiment [14] has as its system Staphylococcus aureus. Kind of experiment: Ratio of ciprofloxacin MIC to compound MIC for Staphylococcus aureus MTCC 96. The class given is functional.
Experiment [15] deals with Candida albicans. The experiment can be described thus: Antifungal activity against Candida albicans MTCC 227 after 2 to 3 days by agar well diffusion method. The class given is functional.
For experiment [16], the system named is Aspergillus flavus. Kind of experiment: Antifungal activity against Aspergillus flavus MTCC 277 after 2 to 3 days by agar well diffusion method. In kind it is functional.
The test system of experiment [17] is Candida albicans. Kind of experiment: Ratio of miconazole MIC to compound MIC for Candida albicans MTCC 227. In kind it is functional.
In experiment [18] the test system is Aspergillus niger. The experiment can be described thus: Antifungal activity against Aspergillus niger MTCC 281 up to 200 ug/mL after 2 to 3 days by agar well diffusion method. The class given is functional, organism-based.
The test system of experiment [19] is Staphylococcus aureus. The experiment can be described thus: Antibacterial activity against Staphylococcus aureus MTCC 96 up to 200 ug/mL after 24 hrs by agar well diffusion method. In kind it is functional, organism-based.
In experiment [20] the test system is Bacillus subtilis. Kind of experiment: Antibacterial activity against Bacillus subtilis MTCC 441 up to 200 ug/mL after 24 hrs by agar well diffusion method. In kind it is functional, organism-based.
The test system of experiment [21] is Salmonella typhimurium. The experiment can be described thus: Antibacterial activity against Salmonella typhimurium MTCC 98 up to 200 ug/mL after 24 hrs by agar well diffusion method. The class given is functional, organism-based. The note with it: Salmonella enterica subsp. enterica serovar Typhimurium.
The subject of experiment [22] is Escherichia coli. Kind of experiment: Antibacterial activity against Escherichia coli MTCC 443 up to 200 ug/mL after 24 hrs by agar well diffusion method. In kind it is functional, organism-based.
The subject of experiment [23] is Aspergillus flavus. Kind of experiment: Antifungal activity against Aspergillus flavus MTCC 277 up to 200 ug/mL after 2 to 3 days by agar well diffusion method. In kind it is functional, organism-based.
The test system of experiment [24] is Candida albicans. Kind of experiment: Antifungal activity against Candida albicans MTCC 227 up to 200 ug/mL after 2 to 3 days by agar well diffusion method. In kind it is functional, organism-based.
The subject of experiment [25] is Fusarium solani. The experiment can be described thus: Antifungal activity against Fusarium solani MTCC 350 up to 200 ug/mL after 2 to 3 days by agar well diffusion method. The class given is functional, organism-based.

A word on the MIC: it is the least concentration at which growth counts as inhibited. What is called inhibition is how much of the control response was suppressed.

In brackets after ≈: the same amount, converted by molar mass. Activity calls are given as the source filed them. No cut-off for these calls is given here.

For the compound `COc1ccc(C2=NN(C(C)=O)C(c3ccc(NS(=O)(=O)c4ccc(C(F)(F)F)cc4Br)cc3)C2)cc1OC` (stereo not given), the Ratio in [1] is listed as 2; in experiment [2], 1.5; in experiment [4], 1.5; in [5] it was 1.5; in experiment [7] it was 2; in [14], 2. Moreover, the MIC in experiment [3] worked out at 10 µg/mL (≈ 16 µM); in experiment [6], 10 µg/mL (≈ 16 µM); in experiment [8], 10 µg/mL (≈ 16 µM); in experiment [11] it was 15 µg/mL (≈ 23.9 µM); in experiment [12], 10 µg/mL (≈ 16 µM); in experiment [13], 10 µg/mL (≈ 16 µM). Besides, the MIC in [15] came out at 20 µg/mL (≈ 31.9 µM); in experiment [16], 10 µg/mL (≈ 16 µM). For the same compound, the inhibition at 10 µM in experiment [9] is 0%; in [10] it was 8%.
On to `COc1ccc(C2=NN(C(C)=O)C(c3ccc(NC(=O)Nc4ccc(C(F)(F)F)cc4)cc3)C2)cc1OC` (stereo not given), for which the MIC amounted to 40 µg/mL (≈ 76 µM) in experiment [3]; 25 µg/mL (≈ 47.5 µM) in [6]; 15 µg/mL (≈ 28.5 µM) in experiment [8]; 25 µg/mL (≈ 47.5 µM) in [11]; 25 µg/mL (≈ 47.5 µM) in [12]; 15 µg/mL (≈ 28.5 µM) in experiment [13]. Besides, the minimal inhibitory concentration (MIC) in [15] and in experiment [16] was 15 µg/mL (≈ 28.5 µM) throughout. Moreover, the Ratio in [17] and in [7] was 1.3 each time. Besides, the inhibition at 10 µM came to 3% in [9] and 21% in experiment [10].
Turning to `COc1ccc(C2=NN(C(C)=O)C(c3ccc(NC(=O)Nc4ccc(C)c(C)c4)cc3)C2)cc1OC` (stereo not given), the outcome in experiment [18], in [19], in experiment [20], in experiment [21] and in [22] was inactive. In addition, the minimal inhibitory concentration (MIC) in [8], in [15] and in experiment [16] was 90 µg/mL (≈ 185 µM) each time. Further, the inhibition at 10 µM worked out at 18% in experiment [9] and 30% in experiment [10].
On to `COc1ccc(C2=NN(C(C)=O)C(c3ccc(NC(=S)Nc4ccc(F)cc4)cc3)C2)cc1OC` (stereo not given), for which the outcome in experiment [23], in experiment [18], in experiment [24], in [20] and in experiment [21] was inactive. For the same compound, the results for the MIC in [8], in experiment [12] and in experiment [13] were 90 µg/mL (≈ 183 µM), 80 µg/mL (≈ 162 µM) and 80 µg/mL (≈ 162 µM), respectively. For the same compound, the inhibition at 10 µM in [9] came to 3%; in experiment [10], 10%.
With `COc1ccc(C2=NN(C(C)=O)C(c3ccc(NC(=S)Nc4ccccc4C(F)(F)F)cc3)C2)cc1OC` (stereo not given), the result in experiment [23], in experiment [18], in experiment [19], in [24], in experiment [20] and in experiment [25] was inactive. Besides, in experiment [21], the result was inactive. The values for the inhibition at 10 µM in [9] and in [10] were 40% and 65%, respectively. Also, in [13], the MIC was found to be 95 µg/mL (≈ 175 µM).
For the compound `COc1ccc(C2=NN(C(C)=O)C(c3ccc(NC(=S)Nc4ccc(C)cc4)cc3)C2)cc1OC` (stereo not given), the outcome in experiment [23], in [18], in [19], in [24], in [20] and in experiment [25] was inactive. The outcome in experiment [21] and in [22] was inactive. Moreover, the inhibition at 10 µM in experiment [9] amounted to 0%; in experiment [10], 3%.
As to `COc1ccc(C(=O)/C=C/c2ccc([N+](=O)[O-])cc2)cc1OC`, the result in experiment [23], in [18], in experiment [19] and in [25] was inactive. In addition, the minimal inhibitory concentration (MIC) was 90 µg/mL (≈ 287 µM) in experiment [3], 90 µg/mL (≈ 287 µM) in [11], 80 µg/mL (≈ 255 µM) in experiment [13] and 90 µg/mL (≈ 287 µM) in [15]. Further, the inhibition at 10 µM in [9] and in experiment [10] was 0% each time.
In the case of `COc1ccc(C2=NN(C(C)=O)C(c3ccc(N)cc3)C2)cc1OC` (stereo not given), the outcome in [23], in experiment [18], in experiment [19], in experiment [24], in experiment [20] and in experiment [25] was inactive. Besides, the result in experiment [21] was inactive. The inhibition at 10 µM in experiment [9] and in experiment [10] was 0% each time. In experiment [13], this compound displayed an MIC of 90 µg/mL (≈ 265 µM).
For the compound `COc1ccc(C2=NN(C(C)=O)C(c3ccc(NS(=O)(=O)c4ccc(C(F)(F)F)cc4)cc3)C2)cc1OC` (stereo not given), the MIC in experiment [3] amounted to 25 µg/mL (≈ 45.7 µM); in [6], 20 µg/mL (≈ 36.5 µM); in [8], 10 µg/mL (≈ 18.3 µM); in [11], 55 µg/mL (≈ 100 µM); in experiment [12], 70 µg/mL (≈ 128 µM); in experiment [13], 35 µg/mL (≈ 63.9 µM). Besides, the MIC stood at 35 µg/mL (≈ 63.9 µM) in experiment [15] and 10 µg/mL (≈ 18.3 µM) in [16]. Also, the values for the Ratio in experiment [5] and in experiment [7] were 1.5 and 2, respectively. Besides, the inhibition at 10 µM in [9] and in experiment [10] was 0% throughout.
For `COc1ccc(C2=NN(C(C)=O)C(c3ccc(NS(=O)(=O)c4ccc(OC)c(OC)c4)cc3)C2)cc1OC` (stereo not given), the outcome in experiment [23], in [18], in experiment [19] and in experiment [24] was inactive. Also, the minimal inhibitory concentration (MIC) in experiment [3], in experiment [8], in [11] and in [13] was 90 µg/mL (≈ 167 µM) each time. The inhibition at 10 µM in experiment [9] and in experiment [10] was 0% throughout.
As for `COc1ccc(C2=NN(C(C)=O)C(c3ccc(NC(=S)Nc4cccc(C(F)(F)F)c4)cc3)C2)cc1OC` (stereo not given), the result in experiment [23], in [18], in experiment [19], in [24], in experiment [20] and in experiment [25] was inactive. Besides, the result in experiment [21] and in experiment [22] was inactive. For the same compound, the inhibition at 10 µM in experiment [9] was found to be 0%; in experiment [10], 8%.
In the case of `COc1ccccc1NC(=S)Nc1ccc(C2CC(c3ccc(OC)c(OC)c3)=NN2C(C)=O)cc1` (stereo not given), the result in experiment [23], in [18], in [19], in experiment [20] and in experiment [21] was inactive. Also, the MIC in experiment [8] was found to be 75 µg/mL (≈ 149 µM); in [13], 90 µg/mL (≈ 178 µM); in experiment [15] it was 90 µg/mL (≈ 178 µM). For the same compound, the inhibition at 10 µM in experiment [9] and in experiment [10] was 0% each time.
As for `COc1ccc(C2=NN(C(C)=O)C(c3ccc(NC(=O)Nc4cc(F)ccc4C)cc3)C2)cc1OC` (stereo not given), the outcome in experiment [23], in experiment [18], in [19], in [24], in experiment [20] and in [25] was inactive. The outcome in experiment [21] was inactive. Also, the inhibition at 10 µM was 28% in experiment [9] and 31% in experiment [10]. In experiment [13], this compound displayed an MIC of 90 µg/mL (≈ 183 µM).
As for `COc1ccc(C2=NN(C(C)=O)C(c3ccc(NC(=S)Nc4ccc(Cl)cc4)cc3)C2)cc1OC` (stereo not given), the result in experiment [18], in experiment [19], in experiment [21] and in [22] was inactive. Also, the MIC in [8], in experiment [11], in experiment [15] and in experiment [16] was 90 µg/mL (≈ 177 µM) in each case. Further, the inhibition at 10 µM in [9] worked out at 68%; in experiment [10], 76%.

The values above are taken from ChEMBL document CHEMBL2157914, “Synthesis, anti-inflammatory and antimicrobial evaluation of novel 1-acetyl-3,5-diaryl-4,5-dihydro (1H) pyrazole derivatives bearing urea, thiourea and sulfonamide moieties” (2012).
